Experimental data from ChEMBL document CHEMBL2401692, “Synthesis, structure-activity relationships, and in vivo efficacy of the novel potent and selective anaplastic lymphoma kinase (ALK) inhibitor 5-chloro-N2-(2-isopropoxy-5-methyl-4-(piperidin-4-yl)phenyl)-N4-(2-(isopropylsulfonyl)phenyl)pyrimidine-2,4-diamine (LDK378) currently in phase 1 and phase …” (J Med Chem, 2013).
Values after ≈ are worked out from the molar mass of the structure shown.

Key:
[1] = tested on: BaF3; assay: cells; details: Mus musculus
[2] = tested on: KARPAS-299; assay: cells; details: Homo sapiens
[3] = Intrinsic clearance in mouse liver microsomes; type: ADME, Microsome; details: read-out: CLH
[4] = Intrinsic clearance in rat liver microsomes; type: ADME, Microsome; details: read-out: CLH
[5] = Intrinsic clearance in human liver microsomes; type: ADME, Microsome; details: read-out: CLH
[6] = target: Cytochrome P450 3A4 (Homo sapiens, UniProt P08684); assay: Inhibition of CYP3A4 in human liver microsomes using midazolam as substrate by LC-MS/MS analysis; type: ADME, Microsome
[7] = Solubility of the compound […] at pH 6.8; type: physicochemical
[8] = target: T1, Voltage-gated inwardly rectifying potassium channel KCNH2 (Homo sapiens, UniProt Q12809)
Description: Inhibition of human ERG by dofetilide binding assay

[9] = target: T1, Voltage-gated inwardly rectifying potassium channel KCNH2; assay: Inhibition of human ERG by patch-clamp technique
[10] = Oral bioavailability in Sprague-Dawley rat at 10 mg/kg; type: ADME, organism-based; details: in vivo

T1 sequence (Q12809 whole entry): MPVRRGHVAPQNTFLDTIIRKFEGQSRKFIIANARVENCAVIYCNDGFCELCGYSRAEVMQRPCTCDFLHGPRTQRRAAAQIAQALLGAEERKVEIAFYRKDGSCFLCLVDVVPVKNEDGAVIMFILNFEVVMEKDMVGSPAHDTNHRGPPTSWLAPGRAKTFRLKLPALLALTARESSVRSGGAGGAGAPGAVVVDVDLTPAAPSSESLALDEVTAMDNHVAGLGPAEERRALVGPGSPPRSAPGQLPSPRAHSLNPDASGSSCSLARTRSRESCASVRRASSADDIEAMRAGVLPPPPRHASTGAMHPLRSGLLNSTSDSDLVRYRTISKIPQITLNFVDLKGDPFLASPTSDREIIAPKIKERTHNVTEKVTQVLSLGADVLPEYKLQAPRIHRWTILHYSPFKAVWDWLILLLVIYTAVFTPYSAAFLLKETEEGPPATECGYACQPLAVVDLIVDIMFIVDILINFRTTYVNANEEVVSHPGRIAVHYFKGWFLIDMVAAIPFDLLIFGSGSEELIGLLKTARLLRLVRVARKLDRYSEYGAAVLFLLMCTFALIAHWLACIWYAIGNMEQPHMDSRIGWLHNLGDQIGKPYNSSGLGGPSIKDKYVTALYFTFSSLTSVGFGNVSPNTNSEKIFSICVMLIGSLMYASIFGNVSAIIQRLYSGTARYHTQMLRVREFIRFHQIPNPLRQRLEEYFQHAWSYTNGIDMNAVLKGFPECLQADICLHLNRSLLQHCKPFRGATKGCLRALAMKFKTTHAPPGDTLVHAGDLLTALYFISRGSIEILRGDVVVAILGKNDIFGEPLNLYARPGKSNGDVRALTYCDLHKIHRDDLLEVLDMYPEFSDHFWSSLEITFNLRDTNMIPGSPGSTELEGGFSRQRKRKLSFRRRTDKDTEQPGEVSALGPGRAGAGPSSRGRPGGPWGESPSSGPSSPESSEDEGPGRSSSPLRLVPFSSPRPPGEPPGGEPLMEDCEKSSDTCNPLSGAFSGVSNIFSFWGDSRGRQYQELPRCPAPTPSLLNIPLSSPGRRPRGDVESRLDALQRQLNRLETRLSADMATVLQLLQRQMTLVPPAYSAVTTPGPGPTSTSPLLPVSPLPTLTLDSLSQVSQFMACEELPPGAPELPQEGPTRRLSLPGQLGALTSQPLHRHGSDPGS
Cytochrome P450 3A4, sequence (P08684 whole entry): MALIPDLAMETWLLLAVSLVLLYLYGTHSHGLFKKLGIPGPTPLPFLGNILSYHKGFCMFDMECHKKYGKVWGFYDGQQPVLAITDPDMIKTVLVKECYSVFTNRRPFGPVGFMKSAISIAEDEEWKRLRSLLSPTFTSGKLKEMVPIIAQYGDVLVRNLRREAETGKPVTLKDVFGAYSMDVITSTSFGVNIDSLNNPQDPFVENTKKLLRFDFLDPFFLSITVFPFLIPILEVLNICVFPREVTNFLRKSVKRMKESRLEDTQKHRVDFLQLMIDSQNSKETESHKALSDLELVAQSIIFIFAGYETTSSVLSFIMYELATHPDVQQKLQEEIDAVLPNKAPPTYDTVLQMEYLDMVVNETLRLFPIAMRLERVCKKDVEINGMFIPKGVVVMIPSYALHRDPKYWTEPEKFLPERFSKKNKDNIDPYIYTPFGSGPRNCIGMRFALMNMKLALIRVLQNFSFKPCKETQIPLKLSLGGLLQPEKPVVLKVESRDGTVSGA

| SMILES | IC50 [1] [nM] | IC50 [2] [nM] | microsomal CLint [3] [µL/min/mg] | microsomal CLint [4] [µL/min/mg] | microsomal CLint [5] [µL/min/mg] | INH [6] [µM] | solubility [7] [µM] | IC50 [8] [nM] | IC50 [9] [nM] | bioavailability [10] [%] |
| --- | --- | --- | --- | --- | --- | --- | --- | --- | --- | --- |
| Cc1cc(Nc2ncc(C)c(Nc3ccccc3S(=O)(=O)C(C)C)n2)c(OC(C)C)cc1C1CCNCC1 | 2880 | 13.1 |  |  |  |  |  |  |  |  |
| Cc1cc(Nc2ncc(Cl)c(Nc3ccccc3S(=O)(=O)C(C)C)n2)c(OC(C)C)cc1C1CCNC(=O)C1 (centres undefined) | > 10000 | 38.4 |  |  |  |  |  |  |  |  |
| Cc1cc(Nc2ncc(Cl)c(Nc3ccccc3S(=O)(=O)C(C)C)n2)c(OC(C)C)cc1C1CCN(CC(F)F)CC1 | > 10000 | 294 |  |  |  |  |  |  |  |  |
| Cc1cc(Nc2ncc(Cl)c(Nc3ccccc3S(=O)(=O)C3CCC3)n2)c(OC(C)C)cc1C1CCNCC1 | 2460 | 13.5 |  |  |  |  |  |  |  |  |
| COCCN1CCC(c2cc(OC(C)C)c(Nc3ncc(Cl)c(Nc4ccccc4S(=O)(=O)C(C)C)n3)cc2C)CC1 | 4970 | 16.1 |  |  |  |  |  |  |  |  |
| Cc1cc(Nc2ncc(Cl)c(Nc3ccccc3S(=O)(=O)N(C)C)n2)c(OC(C)C)cc1C1CCN(C)CC1 | 1190 | 14.3 |  |  |  |  |  |  |  |  |
| Cc1cc(Nc2ncc(Cl)c(Nc3ccccc3S(=O)(=O)C(C)C)n2)c(OC(C)C)cc1C1CCN(CC(N)=O)CC1 | 7540 | 7.9 |  |  |  |  |  |  |  |  |
| Cc1cc(Nc2ncc(Cl)c(Nc3ccccc3S(=O)(=O)C(C)C)n2)c(OC(C)C)cc1C1CCN(CCO)CC1 | 4340 |  | 15 | 14 | 15 | 2.5 | 36 (≈ 21.7 µg/mL) |  |  |  |
| CCN1CCC(c2cc(OC(C)C)c(Nc3ncc(C)c(Nc4ccccc4S(=O)(=O)C(C)C)n3)cc2C)CC1 | 4000 | 10.5 |  |  |  |  |  |  |  |  |
| COCCN1CCC(c2cc(OC(C)C)c(Nc3ncc(C)c(Nc4ccccc4S(=O)(=O)C(C)C)n3)cc2C)CC1 | 4410 | 22.4 |  |  |  |  |  |  |  |  |
| CCN1CCC(c2cc(OC(C)C)c(Nc3ncc(Cl)c(Nc4ccccc4S(=O)(=O)C(C)C)n3)cc2C)CC1 | 4120 | 11.1 |  |  |  |  |  |  |  |  |
| Cc1cc(Nc2ncc(Cl)c(Nc3ccccc3S(=O)(=O)C(C)C)n2)c(OC(C)C)cc1C1CCN(C)CC1 | 4000 | 11.2 | 15 | 4 | 17 | 2.1 | 64 (≈ 36.6 µg/mL) |  |  |  |
| Cc1cc(Nc2ncc(Cl)c(Nc3ccccc3S(=O)(=O)C(C)C)n2)c(OC(C)C)cc1C1CCN(C2CCN(C)CC2)CC1 | 1420 | 100 |  |  |  |  |  |  |  |  |
| Cc1cc(Nc2ncc(Cl)c(Nc3ccccc3S(=O)(=O)C(C)C)n2)c(OC(C)C)cc1C1CCN(CC(=O)O)CC1 | > 10000 | 15.3 |  |  |  |  |  |  |  |  |
| Cc1cc(Nc2ncc(C)c(Nc3ccccc3S(=O)(=O)C(C)C)n2)c(OC(C)C)cc1C1CCN(CCO)CC1 | > 10000 | 23.8 |  |  |  |  |  |  |  |  |
| Cc1cc(Nc2ncc(C)c(Nc3ccccc3S(=O)(=O)C(C)C)n2)c(OC(C)C)cc1C1CCN(C)CC1 | 4080 | 15.6 | 15 | 14 | 8 | 9.8 | 144 (≈ 79.5 µg/mL) | 1100 | 20000 |  |
| Cc1cc(Nc2ncc(Cl)c(Nc3ccccc3S(=O)(=O)C(C)C)n2)c(OC(C)C)cc1C1CCN(C(C)C)CC1 | 3860 | 14.5 |  |  |  |  |  |  |  |  |
| Cc1cc(Nc2ncc(Cl)c(Nc3ccccc3S(=O)(=O)C(C)C)n2)c(OC2CCC2)cc1C1CCNCC1 | 2520 | 13.1 | 15 | 15 | 15 | 7.3 | < 2 |  |  |  |
| CC(C)Oc1cc(N2CCC(N3CCN(C)CC3)CC2)ccc1Nc1ncc(Cl)c(Nc2ccccc2S(=O)(=O)C(C)C)n1 | 3400 | 25.5 |  |  |  |  |  |  |  |  |
| Cc1cc(Nc2ncc(Cl)c(Nc3ccccc3S(=O)(=O)C(C)C)n2)c(OC(C)C)cc1C1CCN(C(=O)CN(C)C)CC1 | 2740 | 21.7 | 45 | 21 | 46 | 0.6 | 4 (≈ 2.57 µg/mL) |  |  |  |
| Cc1cc(Nc2cc(Nc3ccccc3S(=O)(=O)C(C)C)c(Cl)cn2)c(OC(C)C)cc1C1CCN(C)CC1 | 5410 | 5510 |  |  |  |  |  |  |  |  |
| CC(C)Oc1cc(C2CCNCC2)ccc1Nc1ncc(Cl)c(Nc2ccccc2S(=O)(=O)C(C)C)n1 | 3010 | 7.8 | 15 | 15 | 15 | 1.4 | 4 (≈ 2.18 µg/mL) |  |  | 12 |
| CC(C)Oc1nc(C2CCNCC2)ncc1Nc1ncc(Cl)c(Nc2ccccc2S(=O)(=O)C(C)C)n1 | 3800 | 33.3 | 21 | 18 | 16 | 9.3 | 138 (≈ 75.4 µg/mL) | 400 |  |  |
